Data set [1] is described as follows: Acute toxicity (LD50) by oral administration in mice. The data set is classed as in vivo.
In data set [2] the test system is Candida albicans. Put plainly: In vitro antifungal activity, MIC (Method A). The data set is classed as cell-based. Particulars: 3 days, 27° C.; for Antifungal activity MIC: 1×10^5 cells/ml, pH 7.0; for MIC: Candida albicans, 72 h. In outline:
(§1)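 MIC, the lowest concentration with no visible growth, by NCCLS microbroth dilution in Yeast Nitrogen Base solidified with 0.2% low-melting agarose, pH 7.0 with 0.25% K2HPO4. Inoculum 1×10^5 cells/ml; read after 3 days at 27° C.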

For a further data set, the system named is Aspergillus fumigatus. The data set can be described thus: In vitro antifungal activity, MIC (Method A). As to conditions: 3 days, 27° C.; for Antifungal activity MIC: 1×10^5 cells/ml, pH 7.0; for MIC: Aspergillus fumigatus, 72 h. The class given is cell-based. In outline:
as §1

Another data set concerns Cryptococcus neoformans. Put plainly: In vitro antifungal activity, MIC (Method A). The data set is classed as cell-based. Particulars: 3 days, 27° C.; for Antifungal activity MIC: 1×10^5 cells/ml, pH 7.0; for MIC: Cryptococcus neoformans, 72 h. An outline of the steps:
as §1

For data set [3], the system named is Candida albicans. The data set can be described thus: In vitro antifungal activity, IC80 (Method B). The class given is cell-based. As to conditions: 1-2 days, 27° C., read-out: Antifungal activity IC80. The method, then: (§2) The in vitro antifungal activities of the representative compounds of the present invention shown in Table 1 and Table 2 were measured by determining the minimal inhibitory concentrations (MIC: Method A) or 80% growth inhibition concentration (IC80 : Method B) respectively. MIC is defined as the concentration of an antifungal at which growth of fungi is not observed and IC80 is the concentration where cell turbidity measured at OD630 is reduced by 80%.
(§3) Antifungal activities were determined by either method A or B (see below) using microtest plates according NCCLS with minor modifications (Galgiani et at., Antimicrob. Agents Chemother. 33, 731 (1989)).
(§4) (Method B) The medium for yeast was buffered to pH 7.0 with 0.25% K2 HPO4 in Yeast Nitrogen Base (Difco Lab.). For the filamentous fungi, 0.2% of low melting point agar was supplemented to the above medium. Inoculum size was 1×10^4 cells/ml, and incubation was carried out for 1-2 days at 27° C. Fluconazole (Pfizer) was used as reference.

For a further data set, the system named is A. fumigatus. The data set can be described thus: In vitro antifungal activity, IC80 (Method B). The class given is cell-based. Particulars: Aspergillus fumigatus, 1×10^4 cells/ml, 1-2 days, 27° C., 0.2% agar, read-out: Antifungal activity IC80. As to the method:
as §2, §3, §4

The test system of another data set is C. neoformans. Put plainly: In vitro antifungal activity, IC80 (Method B). The class given is cell-based. As to conditions: Cryptococcus neoformans, 1-2 days, 27° C., read-out: Antifungal activity IC80. As to the method: as §2, §3, §4
Where [4] appears, read: pH 7, Candida albicans CY1002, 1×10^4 cells/ml.
Where [5] appears, read: pH 7, Candida albicans CY1005, 1×10^4 cells/ml.
Where [6] appears, read: pH 7, Candida albicans CY3003, 1×10^4 cells/ml.
Where [7] appears, read: pH 7, C. neoformans CY1057, 1×10^4 cells/ml.
The mark [8] stands for this setting: pH 7, C. neoformans CY1059, 1×10^4 cells/ml.

Converted amounts (≈) assume the structure as drawn. Where a name gives a salt, the structure may show the parent alone. Read-outs that look alike come from different tables or passages of the source. Some results are limits rather than exact numbers.

A word on the LD50: it is the dose at which mortality reaches 50%. With “(2S,3R,4S,5S)-5-methyl-2-[(E)-1-nonenyl]-4-propoxy-tetrahydro-2H-pyran-3-ylglycinate trifluoroacetic acid salt [Example 21]”, the LD50 result in data set [1] is given as “more than 500 mg/kg”. Moreover, the “Antifungal activity MIC” value in the data set on Candida albicans [2] (Candida albicans CY1002) was 100 µg/mL; in the data set with Candida albicans [2] (Candida albicans CY1005) it was 50 µg/mL; in the data set on Candida albicans [2] (Candida albicans CY3003), 100 µg/mL; in the data set with Aspergillus fumigatus (Aspergillus fumigatus CF1003), 12.5 µg/mL; with Aspergillus fumigatus (Aspergillus fumigatus CF1004), 6.25 µg/mL; in the data set with Aspergillus fumigatus (Aspergillus fumigatus CF1023), 12.5 µg/mL. The “Antifungal activity MIC” value in the data set on Cryptococcus neoformans (Cryptococcus neoformans CY1057) stood at 12.5 µg/mL; in the data set on Cryptococcus neoformans (Cryptococcus neoformans CY1059), 12.5 µg/mL; with Cryptococcus neoformans (Cryptococcus neoformans CY1061), 25 µg/mL.

The IC80 is the concentration needed for an effect of 80%. With `COc1ccc(CC[C@@H]2CCC(C)(C)[C@H](OC)[C@H]2NC(=O)CN)cc1` [Example 55, (1R,2S,3S)-2-[(aminoacetyl)amino]-4-47dimethyl-3-methoxy-1-[2-(4-methoxyphenyl)ethyl]cyclohexane trifluoroacetic acid salt], the concentration for an effect of 80% (IC80) in the data set with Candida albicans [3] (setting [4]) was 49 µg/mL; with Candida albicans [3] (setting [5]), 69 µg/mL; in the data set on Candida albicans [3] (setting [6]), 50 µg/mL; in the data set on A. fumigatus (A. fumigatus CF1003) it was more than 200 µg/mL; with A. fumigatus (A. fumigatus CF1004) it was more than 200 µg/mL; with C. neoformans (setting [7]) it was 170 µg/mL. In the data set with C. neoformans (setting [8]), the IC80 worked out at 150 µg/mL.

Turning to `CCCCCCCCO[C@@H]1CCC(C)(C)[C@H](OC)[C@@H]1Cn1cncn1` [Example 69, 1-[[(1R,2R,6R)-2-methoxy-3,3-dimethyl-6-octyloxycyclohexyl]methyl]-1H-1,2,4-triazole], the LD50 in data set [1] (mouse, in vivo, read-out: LD50) was more than 500 mg/kg.

Usually MIC stands for the least concentration at which growth counts as inhibited. `CCCCCCC/C=C/[C@@H]1OC[C@H](C)[C@H](OC)[C@H]1OC(=O)CN` [Example 4, (2S,3R,4S,5S)-4-methoxy-5-methyl-2-[(E)-1-nonenyl]-tetrahydro-2H-pyran-3-ylglycinate trifluoroacetic acid salt]: the 50% lethal dose (LD50) in data set [1] (mouse, in vivo, read-out: LD50) was more than 500 mg/kg. Further, the MIC was 100 µg/mL in the data set with Candida albicans [2] (pH 7, Candida albicans CY1002, 1×10^5 cells/ml); 50 µg/mL against Candida albicans [2] (pH 7, Candida albicans CY1005, 1×10^5 cells/ml); 50 µg/mL against Candida albicans [2] (pH 7, Candida albicans CY3003, 1×10^5 cells/ml); 3.13 µg/mL in the data set on Aspergillus fumigatus (pH 7, Aspergillus fumigatus CF1003, 1×10^5 cells/ml); 3.13 µg/mL in the data set on Aspergillus fumigatus (pH 7, Aspergillus fumigatus CF1004, 1×10^5 cells/ml); 1.56 µg/mL against Aspergillus fumigatus (pH 7, Aspergillus fumigatus CF1023, 1×10^5 cells/ml). For the same compound, the MIC in the data set with Cryptococcus neoformans (pH 7, Cryptococcus neoformans CY1057, 1×10^5 cells/ml) was 3.13 µg/mL; in the data set on Cryptococcus neoformans (pH 7, Cryptococcus neoformans CY1059, 1×10^5 cells/ml), 6.25 µg/mL; with Cryptococcus neoformans (pH 7, Cryptococcus neoformans CY1061, 1×10^5 cells/ml), 12.5 µg/mL.

Regarding `CO[C@@H]1[C@@H](Cn2cncn2)[C@H](CCc2ccc3ccccc3n2)CCC1(C)C` [Example 76, 1-[[(1R,2R,6S)-2-methoxy-3,3-dimethyl-6-(2-quinolin-2-ylethyl)cyclohexyl]methyl]-1H,1,2,4-triazole], the IC80 stood at 0.38 µg/mL (≈ 1 µM) with Candida albicans [3] (setting [4]); 0.77 µg/mL (≈ 2.03 µM) in the data set on Candida albicans [3] (setting [5]); 0.36 µg/mL (≈ 0.951 µM) in the data set with Candida albicans [3] (setting [6]); 30 µg/mL (≈ 79.3 µM) in the data set on A. fumigatus (A. fumigatus CF1003); 36 µg/mL (≈ 95.1 µM) with A. fumigatus (A. fumigatus CF1004); 10 µg/mL (≈ 26.4 µM) in the data set with C. neoformans (setting [7]). Moreover, in the data set on C. neoformans (setting [8]), the IC80 is 30 µg/mL (≈ 79.3 µM).

As for `CO[C@@H]1[C@@H](Cn2cncn2)[C@H](CCc2ccc(Cl)cc2)CCC1(C)C` [Example 72, 1-[[(1R,2R,6R)-6-[2-(4-chlorophenyl)ethyl]-2-methoxy-3,3-dimethylcyclohexyl]methyl]-1H-1,2,4-triazole], the IC80 in the data set on Candida albicans [3] (setting [4]) is 0.095 µg/mL (≈ 0.262 µM); in the data set with Candida albicans [3] (setting [5]), 0.094 µg/mL (≈ 0.26 µM); in the data set with Candida albicans [3] (setting [6]) it was 0.06 µg/mL (≈ 0.166 µM); with A. fumigatus (A. fumigatus CF1003) it was 14 µg/mL (≈ 38.7 µM); in the data set on A. fumigatus (A. fumigatus CF1004), 12 µg/mL (≈ 33.2 µM); with C. neoformans (setting [7]), 1.3 µg/mL (≈ 3.59 µM). Also, the IC80 in the data set with C. neoformans (setting [8]) amounted to 4.8 µg/mL (≈ 13.3 µM).

Regarding `CO[C@@H]1[C@@H](Cn2cncn2)[C@H](CCc2ccc(N3CCCC3)cc2)CCC1(C)C` [Example 82, 1-[[(1R,2R,6R)-2-methoxy-3,3-dimethyl-6-[2-(p-pyrrolidinophenyl)ethyl]cyclohexyl]methyl]-1H,1,2,4-triazole], the IC80 was 0.15 µg/mL (≈ 0.378 µM) in the data set with Candida albicans [3] (setting [4]); 0.35 µg/mL (≈ 0.883 µM) with Candida albicans [3] (setting [5]); 0.17 µg/mL (≈ 0.429 µM) in the data set with Candida albicans [3] (setting [6]); more than 200 µg/mL with A. fumigatus (A. fumigatus CF1003); more than 200 µg/mL in the data set with A. fumigatus (A. fumigatus CF1004); more than 200 µg/mL with C. neoformans (setting [7]). Besides, the IC80 with C. neoformans (setting [8]) was more than 200 µg/mL.

As to `COc1ccc(CC[C@@H]2CCC(C)(C)[C@H](OC)[C@H]2Cn2cncn2)cc1` [Example 79, 1-[[(1R,2R,6R)-2-methoxy-6-(p-methoxyphenethyl)-3,3-dimethylcyclohexyl]methyl]-1H,1,2,4-triazole], the IC80 is 0.023 µg/mL (≈ 0.0643 µM) in the data set on Candida albicans [3] (setting [4]); 0.024 µg/mL (≈ 0.0671 µM) in the data set with Candida albicans [3] (setting [5]); 0.02 µg/mL (≈ 0.0559 µM) in the data set with Candida albicans [3] (setting [6]); more than 200 µg/mL in the data set on A. fumigatus (A. fumigatus CF1003); more than 200 µg/mL in the data set on A. fumigatus (A. fumigatus CF1004); 0.86 µg/mL (≈ 2.41 µM) in the data set with C. neoformans (setting [7]). For the same compound, the IC80 with C. neoformans (setting [8]) was determined as 4.7 µg/mL (≈ 13.1 µM).

As for `CO[C@@H]1[C@@H](Cn2cncn2)[C@H](CCc2ccc(C(F)(F)F)cc2)CCC1(C)C` [Example 77], the IC80 with Candida albicans [3] (setting [4]) is 0.16 µg/mL (≈ 0.405 µM); in the data set on Candida albicans [3] (setting [5]), 0.18 µg/mL (≈ 0.455 µM); with Candida albicans [3] (setting [6]), 0.093 µg/mL (≈ 0.235 µM); with A. fumigatus (A. fumigatus CF1003) it was more than 200 µg/mL; in the data set with A. fumigatus (A. fumigatus CF1004), more than 200 µg/mL; with C. neoformans (setting [7]), 0.39 µg/mL (≈ 0.986 µM). Further, the IC80 in the data set with C. neoformans (setting [8]) was 3.2 µg/mL (≈ 8.09 µM).

In the case of `CCCCCCCCO[C@@H]1CCC(C)(C)[C@H](OC)[C@H]1NC(=O)CN` [Example 54, (1R,2S,3S)-2-[(aminoacetyl)amino-4,4-dimethyl-3-methoxy-1-octyloxycyclohexanetrifluoroacetic acid salt], the IC80 in the data set on Candida albicans [3] (setting [4]) turned out to be 18 µg/mL; in the data set with Candida albicans [3] (setting [5]), 12 µg/mL; in the data set on Candida albicans [3] (setting [6]), 18 µg/mL; in the data set on A. fumigatus (A. fumigatus CF1003) it was 150 µg/mL; with A. fumigatus (A. fumigatus CF1004), 140 µg/mL; in the data set on C. neoformans (setting [7]), 46 µg/mL. Also, the IC80 with C. neoformans (setting [8]) stood at 47 µg/mL.

As to `CO[C@@H]1[C@@H](Cn2cncn2)[C@H](CCc2ccc(N(C)C)cc2)CCC1(C)C` [Example 71], the IC80 with Candida albicans [3] (setting [4]) turned out to be 0.03 µg/mL (≈ 0.081 µM); in the data set with Candida albicans [3] (setting [5]), 0.094 µg/mL (≈ 0.254 µM); in the data set with Candida albicans [3] (setting [6]), 0.036 µg/mL (≈ 0.0972 µM); in the data set with A. fumigatus (A. fumigatus CF1003), 32 µg/mL (≈ 86.4 µM); in the data set with A. fumigatus (A. fumigatus CF1004) it was 37 µg/mL (≈ 99.9 µM); in the data set with C. neoformans (setting [7]) it was 1.2 µg/mL (≈ 3.24 µM). Also, the concentration for an effect of 80% (IC80) in the data set with C. neoformans (setting [8]) was found to be 1.9 µg/mL (≈ 5.13 µM).

`CCCCCCC/C=C/[C@@H]1OC[C@H](C)C=C1Cn1ccnc1` [Example 60, 1-[[(2S,5R)-5,6-dihydro-5-methyl-2-[(E)-1-nonenyl]-2H-pyran-3-yl]methyl]-1H-imidazole]: in data set [1] (mouse, in vivo, read-out: LD50), the LD50 was more than 500 mg/kg.

Source of the values: patent US5719291A, “Cyclohexane derivatives” (Hoffmann-La Roche Inc., priority 1991, dated 1998).
